Data taken from patent publication US20120115955A1, “Methods for tumor treatment and adipogenesis differentiation” (Centro de Investigacion Principe Felipe, priority 2010, published 2012).
Entries after “also recorded” stand apart in the source; their conditions may differ.

How the values were obtained:
[1] = test system: HCCLs (MALME-3M, MCF-7, SK-OV-3, HUH-7); test: Flow cytometry FSC and SSC parameters of HCCLs; assay type: cell-based, human; details: mini-screen of unsaturated fatty acids associated with albumin; HUH-7, SK-OV-3, MCF-7, MALME-3M
MALME-3M cells = test: Nile-Red neutral lipid / LD quantification by flow cytometry (FL2); assay type: cell-based, human; details: 12 hours, vs DMSO control; for LD accumulation (Nile-RED): 100 μg/ml each fatty acid, except 10 μg/ml docosahexaenoic and arachidonic acid; for fold induction at 100 µg/mL: Homo sapiens, 100 μg/ml, read-out: generation of LDs, fold induction (Nile-RED FL2)
Method: FIG. 6. […] MALME-3M cells were cultured in the presence of 10 μg/ml of docosahexaenoic acid, 100 μg/ml of nervonic acid, 100 μg/ml of erucic acid, 10 μg/ml of arachidonic acid, 100 μg/ml of linolenic acid, 100 μg/ml of linoleic acid, 100 μg/ml of oleic acid, 100 μg/ml of palmitoleic acid, 100 μg/ml of elaidic acid, or 100 μg/ml petroselinic acid for 12 hours. Fatty acids were dissolved in DMSO; therefore the cells cultured with RPMI+10% FBS and treated with DMSO only were considered negative controls. The Nile-Red analysis was performed as described in the Material and Methods section. Quantification in the FL2 parameter was assessed by the FlowJo software. Fold induction was estimated by calculating the ratio between treated conditions and the untreated condition (control). The results are representative of three independent experiments.
(§1) Cells (10^5) were washed twice in PBS and then incubated with 25 μg/ml of Nile-Red (Invitrogen) in PBS (15 min, 4° C.). After incubation, cells were filtered through a 30 μm sieve (CellTrics, Partec). Fluorescent emission (525 nm) was registered in the FL2 channel by a Beckman Coulter Flow Cytometer (Cytomics™ FC 500). Data files were analyzed using the FlowJo flow cytometer analysis software.

HUH-7 cells = assay type: cell-based
Method: as §1

| Compound | modifications in the forward and side scatter parameters [1] | LD accumulation (Nile-RED) (MALME-3M cells) | fold induction at 100 µg/mL (MALME-3M cells) | LD accumulation by single fatty acid (HUH-7 cells) |
| --- | --- | --- | --- | --- |
| CCCCCCCC/C=C\CCCCCCCC(=O)O [oleic acid, (9Z)-Octadec-9-enoic acid] | remarkable modifications in the forward and side scatter parameters | LD accumulation was induced | ≥ 6 |  |
| CCCCCCCCCCC/C=C\CCCCC(=O)O [petroselinic acid, cis-6-octadecenoic] |  | LD accumulation was induced | ≥ 6 |  |
| CCCCCCCC/C=C/CCCCCCCC(=O)O [elaidic acid, reference compound] |  | LD accumulation was induced |  |  |
| CCCCCCCC/C=C\CCCCCCCCCCCC(=O)O [erucic acid, reference compound] |  | LD accumulation was induced |  |  |
| CCCCCCC=CCCCCCCCC(=O)O [palmitoleic acid, hexadec-9-enoic acid] | remarkable modifications in the forward and side scatter parameters | LD accumulation was induced | ≥ 6 |  |
| CCCCC/C=C\C/C=C\CCCCCCCC(=O)O [linoleic acid, cis, cis-9,12-octadecadienoic acid] | remarkable modifications in the forward and side scatter parameters | triggers LD accumulation; also recorded: LD accumulation was induced | ≥ 6 | triggers LD accumulation |
